# Source: patent US20090170867A1, “TRPV1 ANTAGONISTS INCLUDING SULFONAMIDE SUBSTITUENT AND USES THEREOF” (Shionogi & Co., Ltd., priority 2007, published 2009)
# What was measured:
# [1] = biological target: T1, human TRPV1 (Homo sapiens, UniProt Q8NER1); experiment: Capsaicin-based assay, Protocol 2 (TRPV1/CHO cells, Fluo-4, FLIPR); assay type: cell-based; conditions: capsaicin 100 nM final, mean ± SEM, number of trials in parentheses, read-out: TRPV1 IC50 Potency, Human Capsaicin CHO (hCAP-CHO)
# T1 construct: using primers designed surrounding the complete hTRPV1 open reading frame; expressed in transfected cells; host or cells: CHO-K1 cells stably transfected with pcDNA3.1(-)-hVR1 plasmid
# T1 sequence (Q8NER1 whole entry): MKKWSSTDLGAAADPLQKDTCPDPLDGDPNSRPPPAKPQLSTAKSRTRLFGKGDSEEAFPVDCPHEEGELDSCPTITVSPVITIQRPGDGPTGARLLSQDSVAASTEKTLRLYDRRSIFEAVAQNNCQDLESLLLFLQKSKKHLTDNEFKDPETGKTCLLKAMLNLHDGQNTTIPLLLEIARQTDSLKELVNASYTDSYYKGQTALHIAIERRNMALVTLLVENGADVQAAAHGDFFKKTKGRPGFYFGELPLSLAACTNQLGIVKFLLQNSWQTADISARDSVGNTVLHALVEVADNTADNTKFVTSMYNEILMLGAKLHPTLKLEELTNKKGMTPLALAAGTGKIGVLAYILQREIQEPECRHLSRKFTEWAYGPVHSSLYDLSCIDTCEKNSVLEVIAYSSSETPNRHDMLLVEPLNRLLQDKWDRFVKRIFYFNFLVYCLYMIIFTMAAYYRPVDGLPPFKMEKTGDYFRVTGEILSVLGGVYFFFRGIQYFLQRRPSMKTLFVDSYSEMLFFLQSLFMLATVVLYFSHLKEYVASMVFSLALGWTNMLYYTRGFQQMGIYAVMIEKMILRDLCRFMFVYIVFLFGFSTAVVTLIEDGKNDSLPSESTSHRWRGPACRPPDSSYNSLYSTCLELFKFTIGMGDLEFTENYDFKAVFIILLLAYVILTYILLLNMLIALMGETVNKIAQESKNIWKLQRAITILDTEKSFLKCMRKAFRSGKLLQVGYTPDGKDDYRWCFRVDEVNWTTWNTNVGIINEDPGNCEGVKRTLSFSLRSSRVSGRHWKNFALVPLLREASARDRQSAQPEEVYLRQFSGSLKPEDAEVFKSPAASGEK
# Description: The TRPV1/CHO cell line was generated as described below. […] The resulting PCR products were purified from agarose gels using Gel Band Purification Kit (GE Healthcare Bioscience) and were subcloned into pCR-Blunt vector (Invitrogen). The cloned cDNA was fully sequenced using a fluorescent dye-terminator reagent (BigDye Terminator ver3.1 Cycle Sequencing Kit, Applied Biosystems) and ABI Prism 3100 genetic analyzer (Applied Biosystems). The pCR-Blunt vector containing the hTRPV1 cDNA was subjected to restriction digestion with EcoRI. The restriction fragment was subcloned into expression vector pcDNA3.1 (-) (Invitrogen) and named pcDNA3.1 (-)-hVR1 plasmid. The sequence of the cDNA encoding TRPV1 is available at GenBank accession number AJ277028. […] The cells were transfected with the pcDNA3.1 (-)-hVR1 plasmid using FuGENE6 (Roche) according to the manufacturer's protocol. 24 hr after transfection, neomycin-resistant cells were selected using 1 mg/mL G418 (Nacalai Tesque). […] The cells expressing hTRPV1 were cultured in the growth medium supplemented with 1 mg/mL G418. […] Subsequently, the cells were loaded by incubation in 0.1 mL of wash buffer containing Fluo-4 at 3 μM final concentration. After 1 hour, the cells were washed twice with 0.2 mL wash buffer and resuspended in 0.1 mL wash buffer. The plates were then transferred to a Fluorescence Imaging Plate Reader (Molecular Devices). Fluorescence intensity was monitored for 15 seconds to establish a baseline. […] The final concentration of the compound was adjusted to range from 100 μM to 1.5625 μM. […] Data were collected over the entire time course and analyzed using Excel and the curve-fitting formula GraphPad Prism.
# [2] = biological target: T1, human TRPV1; experiment: pH-based assay, Protocol 2 (TRPV1/CHO cells, Fura-2 AM, FDSS-3000, pH 5.0-5.1); assay type: cell-based; conditions: H2SO4 agonist, mean ± SEM, number of trials in parentheses, read-out: TRPV1 IC50 Potency, Human pH CHO (hpH-CHO)
# Description: For Protocol 2, a Chinese Hamster Ovary cell line (CHO) that has been engineered to constitutively express human recombinant TRPV1 was used (TRPV1/CHO cells). The TRPV1/CHO cell line was generated as described below.
# The resulting PCR products were purified from agarose gels using Gel Band Purification Kit (GE Healthcare Bioscience) and were subcloned into pCR-Blunt vector (Invitrogen). The cloned cDNA was fully sequenced using a fluorescent dye-terminator reagent (BigDye Terminator ver3.1 Cycle Sequencing Kit, Applied Biosystems) and ABI Prism 3100 genetic analyzer (Applied Biosystems). The pCR-Blunt vector containing the hTRPV1 cDNA was subjected to restriction digestion with EcoRI. The restriction fragment was subcloned into expression vector pcDNA3.1 (−) (Invitrogen) and named pcDNA3.1 (−)-hVR1 plasmid. The sequence of the cDNA encoding TRPV1 is available at GenBank accession number AJ277028.
# CHO-K1 cells were maintained in growth medium consisting of α-MEM, 10% FBS (Hyclone), and 100 IU/mL of penicillin-100 μg/mL of streptomycin mixed solution (Nacalai Tesque, Japan) at 37° C. in an environment of humidified 95% air and 5% CO2. The cells were transfected with the pcDNA3.1 (−)-hVR1 plasmid using FuGENE6 (Roche) according to the manufacturer's protocol. 24 hr after transfection, neomycin-resistant cells were selected using 1 mg/mL G418 (Nacalai Tesque). After 2 weeks, individual colonies were picked, expanded, and screened for the expression of hTRPV1 in the capsaicin-induced Ca^2+ influx assay (see below) with a FLIPR (Molecular Devices). A clone with the largest Ca^2+ response to capsaicin was selected and re-cloned by the same procedure. The cells expressing hTRPV1 were cultured in the growth medium supplemented with 1 mg/mL G418.
# TRPV1/CHO cells were seeded in the 96-well clear-bottom black-wall plate (Nunc) at densities of 1-2×10^4 cells/well and grown in 100 μL of culture medium (alpha-MEM supplemented with 10% FBS, 20 mM HEPES, 1 mg/mL geneticin and 1% antibiotic-antimycotic mixed stock solution) for 1-2 days before the experiment.
# Different agonist solutions with sulfuric acid concentrations of from 15 mM to 18 mM (see FIG. 1) were prepared by diluting 1M sulfuric acid with measuring buffer. The different sulfuric acid concentrations in the agonist solutions were selected such that a 1:4 dilution would result in a final sulfuric acid concentration of between 3.0 mM to 3.6 mM, respectively, as indicated in FIG. 1.
# The cells were stimulated using 3.0 mM (well number B1-6), 3.1 mM (C1-6), 3.2 mM (D1-6), 3.3 mM (E1-6), 3.4 mM (F1-6), 3.5 mM (G1-6), or 3.6 mM (H1-6) H2SO4 or pH 7.2 measuring buffer without H2SO4 (A1-6) (FIG. 2).
# (1) Culture medium was removed using an 8-channel-pipette (Rainin, USA) from the 96-well plate and the wells were refilled with 100 μL of loading buffer (20 mM HEPES, 115 mM NaCl, 5.4 mM KCl, 0.8 mM MgCl2, 1.8 mM CaCl2, 13.8 mM D-glucose, 2.5 mM probenecid, pH 7.4) containing 5 μM Fura-2 AM (Dojin, Japan).
# (2) The 96-well plate was incubated at 37° C. for 45 min.
# (3) The loading buffer was removed from each well. The cells were subsequently washed twice with 150 μL of measuring buffer (20 mM HEPES, 115 mM NaCl, 5.4 mM KCl, 0.8 mM MgCl2, 5.0 mM CaCl2, 13.8 mM D-glucose, 0.1% BSA, pH 7.4) (no probenecid). The wells were then refilled with 80 μL of measuring buffer.
# (4) After an incubation at 4° C. for 15 min, the 96-well plate was transferred to FDSS-3000 (Hamamatsu Photonics, Japan).
# (5) The Fura-2 fluorescent intensity was monitored at a wavelength of 340 nm and at 380 nm, respectively, at a rate of 0.5 Hz for a total of 240 seconds.
IC50 [1] [nM],IC50 [2] [nM],Compound
34.5 ± 17.5,18,O=C(Nc1ccc(C(F)(F)F)c(F)c1)N1CC=C(c2ncc([C@H](O)CO)cc2F)CC1 [Compound J1]
77.6 ± 12,40.5,CC(C)c1cc(NC(=O)N2CC=C(c3ncc([C@H](O)CO)cc3Cl)CC2)ccc1OC(F)(F)F [Compound B2]
66.3 ± 5.7,22.4 ± 1.1,O=C(Nc1ccc(OC(F)(F)F)cc1)N1CC=C(c2ncc([C@H](O)CO)cc2F)CC1 [Compound V1]
31.3 ± 8.8,16.4,O=C(Nc1ccc(C(F)(F)F)cn1)N1CCC(F)(c2ncc([C@H](O)CO)cc2Cl)CC1 [Compound G1]
37.5 ± 9,5.7 ± 0.3,O=C(Nc1ccc(OC(F)(F)F)c(Cl)c1)N1CCC(F)(c2ncc([C@H](O)CO)cc2Cl)CC1 [Compound M1]
537 ± 62,106 ± 11.4,CC(C)(O)c1cnc(C2=CCN(C(=O)Nc3nc4ccc(Cl)cc4s3)CC2)c(Cl)c1 [Compound B3]
57.2 ± 11.6,5.8 ± 1.3,O=C(Nc1ccc(S(=O)(=O)C(F)(F)F)cc1)N1CCC(F)(c2ncc([C@@H](O)CO)cc2Cl)CC1 [Compound B4]
106 ± 21,15 ± 3,O=C(Nc1ccc(Br)c(C(F)(F)F)c1)N1CCC(F)(c2ncc([C@H](O)CO)cc2Cl)CC1 [Compound B5]
35.1 ± 8.8,39.5,O=C(Nc1ccc(C(F)(F)F)cn1)N1CC=C(c2ncc([C@H](O)CO)cc2Cl)CC1 [Compound K1]
351 ± 69.8,59.9 ± 11.8,O=C(Nc1ccc(OCC2CC2)c(C(F)(F)F)c1)N1CC=C(c2ncc(CO)cc2Cl)CC1 [Compound Y2]
671 ± 133,141 ± 23.1,CC(C)(O)c1cnc(C2=CCN(C(=O)Nc3ccc(C(F)(F)F)c(F)c3)CC2)c(Cl)c1 [Compound E3]
60.3 ± 19,29.7 ± 2.3,O=C(Nc1ccc(Cl)c(C(F)(F)F)c1)N1CCC(F)(c2ncc([C@H](O)CO)cc2Cl)CC1 [Compound T1]
196 ± 37.7,108 ± 7.7,O=C(Nc1ccc(C(F)(F)F)cn1)N1CCC(F)(c2ncc([C@@H](O)CO)cc2F)CC1 [Compound Y5]
9.8 ± 2.3,0.8 ± 0.1,"CC(C)(C)c1ccc(NC(=O)N2CCN(c3ncc([C@H](O)CO)cc3Cl)CC2)cc1 [Compound K6, (S)—N-(4-tert-butylphenyl)-4-(3-chloro-5-(1,2-dihydroxyethyl)pyridin-2-yl)piperazine-1-carboxamide]"
35.5 ± 3.9,16.4 ± 1.9,O=C(Nc1nc2ccc(Cl)cc2s1)N1CCC(F)(c2ncc([C@@H](O)CO)cc2F)CC1 [Compound Z5]
520 ± 88.6,516 ± 99.2,CN1CCCc2ccc(NC(=O)N3CCN(c4ncc([C@H](O)CO)cc4Cl)CC3)cc21 [Compound H5]
86.7 ± 18.9,32.5 ± 2.4,"O=C(Nc1ccc(C(F)(F)F)cc1)N1CC=C(c2ncc(C(F)(F)CO)cc2Cl)CC1 [Compound F4, 4-(3-chloro-5-(1,1-difluoro-2-hydroxyethyl)pyridin-2-yl)-N-(4-(trifluoromethyl)phenyl)-5,6-dihydropyridine-1(2H)-carboxamide]"
182,590,O=C(Nc1ccc(C(F)(F)F)c(F)c1)N1CC=C(c2ncccc2F)CC1 [Compound 202]
90.2,51.2,O=C(Nc1ccc(C(F)(F)F)cc1)N1CCC(F)(c2ncccc2Cl)CC1 [Compound 203]
400 ± 10.6,108,O=C(Nc1ccc(Cl)c(C(F)(F)F)c1)N1CCC(F)(c2ncc([C@@H](O)CO)cc2F)CC1 [Compound G5]
45.5 ± 2.1,10.1 ± 1.4,Cc1cc(NC(=O)N2CCC(F)(c3ncc([C@@H](O)CO)cc3Cl)CC2)ccc1OC(F)(F)F [Compound V5]

Compound,IC50 [1] [nM],IC50 [2] [nM]
O=C(Nc1ccc(C(F)(F)F)cc1)N1CCC(F)(c2ncc([C@@H](O)CO)cc2Cl)CC1 [Compound B1],7.81 ± 1.2,7.4 ± 0.3
O=C(Nc1ccc(C(F)(F)F)c(Cl)c1)N1CC=C(c2ncc([C@@H](O)CO)cc2Cl)CC1 [Compound M3],187 ± 43.7,30 ± 2.1
